Assay results as given in patent publication US10220025B1, “Self-emulsifying formulation of CARP-1 functional mimetics” (Florida A&M University, priority 2016, dated 2019).

How the values were obtained:
[1] = system: mammospheres of parental and drug-resistant MDA-MB-468 TNBC cells; test: three-dimensional mammosphere assay; format: cell-based, human
Method: The TNBC cells were obtained from tumors derived from parental and drug-resistant cells or from a two-dimensional culture plate with ˜70-80% confluence. The cells were washed twice in 1×PBS and trypsinized following established protocols. The cells were pelleted at 200×g at room temperature, and re-suspended in 5 ml of mammosphere media (DMEM/F12 supplemented with 2 mM L-glutamine, 100 U/ml penicillin, […] streptomycin, 1×B27 supplement, 20 ng/ml recombinant human epidermal growth factor (EGF; Sigma), 10 ng/ml recombinant human basic fibroblast growth factor (bFGF; R&D Systems). The cell suspension of ˜5000 viable cells per ml was then seeded in an ultra-low adherent 60 mm plate and incubated at 37° C. and 5% CO2 for two weeks without disturbing the plates. After the mammospheres formed, fresh media with or without 10 μM CFM-4.16 was added and the cells incubated for additional 24 h at 37° C. and 5% CO2. The mammospheres in the untreated and treated plates were photographed, and the cells were then dissociated to determine their viabilities by the MTT assay as described [Lombardo Y, de Giorgio A, Coombes C R, Stebbing J, Castellano L. Mammosphere Formation Assay from Human Breast Cancer Tissues and Cell Lines. J. Vis. Exp. 2015; 97: e52671. doi:10.3791/52671].

[2] = system: MDA-MB-468 TNBC cells, wild type; test: MTT viability assay, parental MDA-MB-468; format: cell-based, human
Method: In vitro inhibition of cell growth was assessed by MTT (3-[4, 5-dimethyltiazol-2-yl]-2.5-diphenyl tetrazolium bromide) reagent. Cells (5×10^3) were seeded in a 96-well culture plate and subsequently treated with respective agents at different concentrations as mentioned. Control cells were treated with 0.1% DMSO in culture medium. After treatment, the cells were incubated with 1 mg/ml of MTT reagent at 37° C. for 2-4 hours and then MTT was removed and 50 μL of DMSO was added, followed by colorimetric analysis using a multi-label plate reader at 560 nm (Victor3; PerkinElmer, Wellesley, Mass., USA).

[3] = system: parental and drug-resistant TNBC and SKBR-3 cells; test: soft-agar clonogenic assay; format: cell-based; details: 10 μM; FIGS. 11D, 12C, 12D, 13C
Method: A soft-agar sandwich assay was performed. Cells were sandwiched between 0.6% and 0.3% agarose in DMEM medium containing 5% FBS in a six-well chamber (500 cells/chamber), and treated with buffer (Control), or respective agent for noted time and dose at 37° C. humidified CO2 incubator. The colonies from multiple random fields were counted, compared to control and photographed essentially as described before [Jamal S, Cheryan V T, Muthu M, Munie S, Levi E, Ashour A E, Pass H I, Wali A, Singh M, Rishi A K. CARP-1 functional mimetics are a novel class of small molecule inhibitors of malignant pleural mesothelioma cells. PLos One. 2014; 9:e891; Ashour A E, Jamal S, Cheryan V T, Muthu M, Zoheir K M A, Alafeefy A M, Abd-allah A R, Levi E, Tarca A L, Polin L A, Rishi A K. CARP-1 functional mimetics: A novel class of small molecule inhibitors of medulloblastoma cell growth. PLoS One. 2013; 8:e66733; Zhang L, Levi E, Majumder P, Yu Y, Aboukameel A, Du J, Xu H, Mohammad R M, Hatfield J S, Wali A, Adsay V, Majumdar A P N, Rishi A K. Transactivator of transcription tagged cell cycle and apoptosis regulatory protein-1 peptides suppress growth of human breast cancer cells in vitro and in vivo. Mol Cancer Ther. 2007; 6:1661-1672].

[4] = system: MCF-7, SK-BR-3 and MDA-MB-453 breast cancer cells; test: MTT viability assay, ADR plus CFM-4.16 in non-TNBC breast cancer cells; format: cell-based; details: not shown
[5] = system: CSC-enriched populations from xenografts of parental and ADR-resistant MDA-MB-231 TNBC cells; test: MTT viability of tumor-derived CSC-enriched cells; format: cell-based, human; details: dose-dependent; FIG. 15C
Method: The CSC-enriched cells were then treated with ADR, CFM-4.16, or a combination of both for noted dose and time. The cell viabilities were determined by MTT-based assay as in FIGS. 3A-3C, and plotted relative to the MTT values for the respective untreated controls. The histogram columns in panels B and C represent means of three and four independent experiments, respectively; bars, S.E. α, αα, β, ββ, ^*,**,#,##p=<0.03 relative to respective cells treated with ADR+CFM-4.16.
The TNBC cells were obtained from tumors derived from parental and drug-resistant cells or from a two-dimensional culture plate with ˜70-80% confluence. The cells were washed twice in 1×PBS and trypsinized following established protocols. […]
It was next clarified whether and to the extent CFM-4.16 was able to interfere with growth of mammospheres derived from parental and drug-resistant TNBC-cells. […] The growing mammosphere cultures were then exposed to CFM-4.16, and the viabilities of untreated and treated cultures were determined by an MTT-based assay. […]

[6] = system: H2461 malignant pleural mesothelioma (MPM) cells; test: MTT viability assay, MPM cells; format: cell-based, human; details: 20 μM; 24 h; FIG. 3A
Excerpt: The current inventors' previous studies have indicated cancer cell growth inhibitory properties of CFMs in particular CFM-4 and CFM-5 [Puliyappadamba et al.]. […] J. Biomed. Nanotechnol. 2015; 11:1608-1627]. […] J. Biomed. Nanotechnol. 2015; 11:1608-1627]. On the basis of these findings, it was speculated that solubility and/or potency of the CFM-4 scaffold could be improved for its utility as a novel anti-TNBC molecule. To address this possibility, twelve (12) additional analogs of CFM-4 (Table 2) were synthesized using medicinal chemistry based structure activity relationship (SAR) studies. Each of the analog was suspended in DMSO, and their potency was evaluated in cell culture studies utilizing HeLa cervical cancer, MDA-MB-468 TNBC, and H2461 malignant pleural mesothelioma (MPM) cells by MTT based assays. […] Moreover, a 10 μM dose of CFM-4 inhibited MDA-MB-231 and MDA-MB-468 viabilities by ˜30% and 45%, respectively.

[7] = system: Klf4, Oct4, SOX2, CD133 in MDA-MB-231 TNBC cells; test: Western blot, cancer stem cell markers; details: parental and ADR-resistant MDA-MB-231; FIG. 14B
Method: For protein expression analysis, Western blot (WB) experiments were performed according to the standard procedures. The cells were either untreated or treated with various agents either alone or in combinations as indicated. Following treatment durations, the cells were lysed in cell lysis (10×) buffer (#9803; cell signaling) containing 0.1% of protease and phosphatase inhibitor cocktail (Sigma) for 20 min at 4° C. The lysates were centrifuged at 14,000 rpm at 4° C. for 15-20 min to remove debris. Protein concentrations of whole cell lysates were determined using the Protein Assay Kit. Supernatant proteins, 50-100 μg from each sample, were separated by SDS-polyacrylamide gel electrophoresis (SDS-PAGE) and transferred to polyvinylidene difluoride (PVDF) membrane (Bio-rad, Hercules, Calif.) by standard procedures. […] The antibody-bound proteins were visualized by treatment with the chemiluminescence detection reagent according to manufacturer's instructions, followed by exposure to X-ray film (Denville Scientific Inc.). The same membranes were re-probed with the anti-β-actin or anti-α-tubulin antibody, which was used as an internal control for protein loading.

O=C1N(Cc2ccccc2Cl)c2ccccc2C12NN=C(c1cccc(Cl)c1)S2 (stereo not drawn) [CFM-4.16]
mammosphere integrity ([1]; 10 μM, 24 h, FIG. 15A): disintegration of mammospheres | viability of mammospheres vs DMSO-treated controls ([1]; parental and ADR-resistant cells, FIG. 15B): robust decline in viability | inhibition / loss of cell viability ([2]; 10 μM dose): 80-100% | inhibition of viability compared with CFM-4 ([2]; 20 μM, 24 h, FIG. 3A): greater inhibition of viability | colonies formed in soft agar [3]: significant reduction in size and number of colonies | effect on ADR-mediated growth inhibition [4]: failed to enhance ADR-mediated growth inhibition | viabilities of CSC enriched TNBC cells vs untreated [5]: significant loss of viabilities | loss of viability compared with CFM-4 [6]: greater loss of viability | levels of Oct4 [7]: robust decline in levels of Oct4
